From patent US20240261274A1, “TREATMENT OF MYC-DRIVEN CANCERS WITH GSPT1 DEGRADERS” (MONTE ROSA THERAPEUTICS, INC., priority 2021, published 2024) come the findings set out here.

One assay deals with GSPT1 (Homo sapiens, UniProt P15170+Q96SW2). The experiment in a line: GSPT1 degradation immunofluorescence assay in CAL-51 cells. The format is cell-based. Also on record: endogenous in cells; host or cells: CAL-51 (DSMZ ACC302). As to conditions: 6 hours, Table 4, read-out: Activity for GSPT1 degradation, Code (DC50). The method, boiled down:
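CAL-51 cells on fibronectin treated 6 h with compound (typically 30 μM to 0.1 nM), then fixed, permeabilised and immunostained for GSPT1, with phalloidin and DAPI. High-content imaging gave mean GSPT1 intensity per segmented cell. DC50 from non-linear regression after normalisation to DMSO and CC-885 (10 μM) controls.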

Assay [1] addresses T1, Full length wild-type cereblon CRBN (Homo sapiens, UniProt Q96SW2).
T1 construct: Full length wild-type cereblon CRBN (80.0 nM, 10 μL) was incubated in assay buffer
Description: Fluorescence polarization (FP) assay indicating cereblon binding. As to conditions: bound stated; read-out: IC50 value. The procedure, abridged: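 Full-length wild-type CRBN at 80.0 nM was preincubated 30 min at room temperature with compound (12-point curve, 300–0.937 or 3000–9.3 nM) in 20 mM HEPES pH 8.0, 150 NaCl, 0.5 mM TCEP, 0.05% Tween 20. Cy5-type thalidomide-based probe added at 5 nM final; FP read after 12 h (ex 590/em 675 nm), normalized to DMSO, IC50 fitted.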
On the technique in general: Polarisation of emitted light reports the rotation of a fluorescent probe.

Sequence of GSPT1 (P15170 whole entry): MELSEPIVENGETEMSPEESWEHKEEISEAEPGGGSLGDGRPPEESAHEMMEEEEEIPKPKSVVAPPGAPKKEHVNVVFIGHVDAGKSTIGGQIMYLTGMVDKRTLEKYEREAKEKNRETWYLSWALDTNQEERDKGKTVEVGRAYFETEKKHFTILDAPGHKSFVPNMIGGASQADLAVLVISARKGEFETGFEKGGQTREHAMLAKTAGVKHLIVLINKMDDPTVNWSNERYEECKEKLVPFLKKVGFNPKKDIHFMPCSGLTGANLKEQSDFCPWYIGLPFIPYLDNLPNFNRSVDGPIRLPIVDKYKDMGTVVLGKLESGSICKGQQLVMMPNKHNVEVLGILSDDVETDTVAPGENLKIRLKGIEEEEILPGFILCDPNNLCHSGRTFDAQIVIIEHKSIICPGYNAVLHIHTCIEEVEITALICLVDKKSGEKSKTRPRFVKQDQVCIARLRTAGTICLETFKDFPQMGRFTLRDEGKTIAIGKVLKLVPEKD
Sequence of GSPT1 (Q96SW2 whole entry): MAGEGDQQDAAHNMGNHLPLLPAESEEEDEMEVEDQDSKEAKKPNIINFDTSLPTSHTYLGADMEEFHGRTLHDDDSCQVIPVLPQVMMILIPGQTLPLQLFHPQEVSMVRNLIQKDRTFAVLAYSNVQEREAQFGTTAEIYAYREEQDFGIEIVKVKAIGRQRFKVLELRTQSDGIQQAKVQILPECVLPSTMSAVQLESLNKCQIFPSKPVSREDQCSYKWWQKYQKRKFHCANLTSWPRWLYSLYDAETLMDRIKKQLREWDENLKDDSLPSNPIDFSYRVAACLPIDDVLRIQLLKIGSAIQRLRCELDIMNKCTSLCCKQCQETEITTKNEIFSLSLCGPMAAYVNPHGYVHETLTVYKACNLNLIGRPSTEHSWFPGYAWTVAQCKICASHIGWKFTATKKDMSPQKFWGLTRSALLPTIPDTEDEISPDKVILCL
Sequence of GSPT1 (Q16531 whole entry partner): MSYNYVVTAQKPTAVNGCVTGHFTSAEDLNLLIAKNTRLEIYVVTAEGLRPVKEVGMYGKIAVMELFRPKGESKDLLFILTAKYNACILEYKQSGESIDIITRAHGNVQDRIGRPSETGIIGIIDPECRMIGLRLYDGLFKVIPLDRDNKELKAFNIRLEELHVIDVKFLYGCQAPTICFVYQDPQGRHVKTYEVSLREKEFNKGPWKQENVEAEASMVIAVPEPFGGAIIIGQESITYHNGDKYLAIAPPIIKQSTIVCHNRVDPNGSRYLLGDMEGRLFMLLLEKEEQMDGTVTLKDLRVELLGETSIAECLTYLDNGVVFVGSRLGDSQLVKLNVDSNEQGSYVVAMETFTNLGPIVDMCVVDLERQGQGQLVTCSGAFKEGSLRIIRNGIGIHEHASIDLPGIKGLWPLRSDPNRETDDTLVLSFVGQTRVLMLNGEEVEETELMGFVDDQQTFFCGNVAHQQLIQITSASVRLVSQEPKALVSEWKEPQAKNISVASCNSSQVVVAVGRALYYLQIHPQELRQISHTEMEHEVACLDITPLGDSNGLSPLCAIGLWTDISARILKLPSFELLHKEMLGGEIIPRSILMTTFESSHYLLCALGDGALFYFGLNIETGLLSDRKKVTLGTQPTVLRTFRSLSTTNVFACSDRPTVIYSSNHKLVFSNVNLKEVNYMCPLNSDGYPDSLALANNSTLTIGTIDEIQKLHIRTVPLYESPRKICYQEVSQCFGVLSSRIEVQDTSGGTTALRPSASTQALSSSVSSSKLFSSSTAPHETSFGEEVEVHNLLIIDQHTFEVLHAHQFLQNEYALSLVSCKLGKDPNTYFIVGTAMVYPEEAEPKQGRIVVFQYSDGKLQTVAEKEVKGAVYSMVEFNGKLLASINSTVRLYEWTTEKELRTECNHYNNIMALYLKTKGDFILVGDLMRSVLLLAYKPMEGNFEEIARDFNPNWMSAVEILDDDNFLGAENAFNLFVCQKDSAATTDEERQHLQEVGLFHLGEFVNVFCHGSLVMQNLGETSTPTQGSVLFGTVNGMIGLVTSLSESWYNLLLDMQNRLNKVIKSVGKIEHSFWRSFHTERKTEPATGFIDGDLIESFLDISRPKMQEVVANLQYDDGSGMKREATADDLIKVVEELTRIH
T1 sequence (Q96SW2 whole entry): as the sequence (Q96SW2 whole entry) above

For orientation: DC50 means the midpoint of the concentration-degradation curve. Broadly, the IC50 is the concentration needed to halve the response being measured. Turning to `Cc1c(Cl)cc(NC(=O)NCc2ccc3c(c2)C(=O)N(C2CCC(=O)NC2=O)C3)cc1CN1C2CCC1COC2` (stereo not shown) [Compound 138], the DC50 at GSPT1 is not above 100 nM. Moreover, the 50% inhibitory concentration (IC50) in assay [1] is less than 1100 nM.

With `Cc1ccc(NC(=O)NCc2ccc3c(c2)C(=O)N(C2CCC(=O)NC2=O)C3)cc1Cl` (stereo not shown) [Compound 8], on GSPT1, the DC50 was not above 100 nM. The IC50 in assay [1] was less than 1100 nM.
